In PubChem BioAssay (NCI):
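Step 1: Grow cells in 96-well plates. Step 2: Expose to compound for 48 hours at 5 concentrations. Step 3: Interpolate endpoints linearly; if unreached, use highest concentration. GI50 = concentration required for 50% inhibition of growth. TGI is the concentration that stops growth completely.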

What follows are molecules tested on MDA-MB-435 (assay: NCI anticancer screen, dose series, 48 h).

Structure (SMILES) | GI50 [µM] | TGI [µM]
Cn1c(=O)c(Cc2ccccc2F)cc2cnc(NC3CCOCC3)nc21 | > 25 | > 25
COc1cc(/C=C/c2ccc(OC)c(OC)c2)cc(OC)c1 |  | > 100
CC1(C)[C@@H](OC(N)=O)[C@H]2O[C@H]2[C@]2(C=O)[C@H]3CC[C@]4(C)[C@@H](c5ccc(=O)oc5)[C@@H](Cl)C[C@]4(O)C3=CC[C@@H]12 | 0.00704 | 0.0187
CCCCON(OC(=O)c1ccc2ccc3cccc4ccc1c2c34)C(C)=O | 22.3 | 50.4
Cc1[nH]c2ccccc2c(=O)c1CC=C(Cl)Cl | > 100 | > 100
Clc1ccc(C=Nc2ccc3c(c2)Cc2ccccc2-3)c(Cl)c1 |  | > 100
COc1ccc(/C=C/c2cc(OC)cc(=O)o2)cc1 |  | > 100
O=C(/C=C\c1ccc(NCc2ccc(C(=O)O)cc2)cc1)CCl | 15.8 | 31.9
O=C1CSC(c2ccc(Cl)cc2Cl)N1c1ccc(F)cc1 (stereo not drawn) | 20.8 | 43
COc1cccc(C#Cc2ccccc2C#CCCCCO)c1 | 1.92 | 8.2
COc1cc2[nH]c(C(=O)c3cc(OC)c(OC)c(OC)c3)c(N)c2cc1C#CC1CC1 | 0.332 | 1.17
COc1ccc(/C=C/C(=O)C(CC2CCC2)C(=O)/C=C/c2ccc(OC)c(OC)c2)cc1OC | 1.49 | 3.15
CCn1c(-c2ccc(OC(C)=O)cc2)c(C)c2cc(OC(C)=O)ccc21 |  | 33.7
O=c1cccc(C#CC#CC2=CCCCC2)o1 | 4 | 10.4
O=C1Nc2ccc(F)cc2/C1=C/c1ccc[nH]1 | > 25 | > 25

These molecules were tested on MALME-3M melanoma (assay: NCI anticancer screen, dose series, 48 h).

Structure (SMILES) | GI50 [µM] | TGI [µM]
Nc1ccc(-c2nc3ccc(Cc4ccc5nc(-c6ccc(N)cc6)[nH]c5c4)cc3[nH]2)cc1 | 2.04 | 4.53
O=S(=O)(Nc1cc(Sc2cccc3cccnc23)c(O)c2ccccc12)c1ccccc1 | 2.72 | 9.65
CN(C)C(=O)[C@H](O)[C@H](Cc1ccccc1)NC(=O)c1cc2cc(Cl)ccc2[nH]1 | 16.2 | 44.1
CC(C)(C[C@H]1CN(S(=O)(=O)c2cccc(C(F)(F)F)c2)c2cc(-c3cc(F)cc(OC(F)F)c3)ccc2O1)C(=O)O | 10.2 | 25.1
Cc1ccc(-c2nc3ccc(Cl)cc3c(=O)n2N2C(=O)CSC2c2ccccc2Cl)cc1 (stereo not drawn) | 5.97 | > 100
C#Cc1c(I)n(C2OC(CO[Si](C)(C)C(C)(C)C)C3OC(C)(C)OC32)c(=O)[nH]c1=O (stereo not drawn) | 2.41 | 6.59
CCSc1nc(SCC)c2cn[nH]c2n1 | > 100 | > 100
ClCC[N+]12CC[N+](CCCl)(CC1)C2 |  | > 100
COc1cc(C(=O)c2cc(C)c3[nH]c4ccc(C)cc4c3c2C)cc(OC)c1OC | < 0.01 | > 100
C=C1C(=O)OC2/C=C(\COC(C)=O)CCC(OC(C)=O)C3=CC(OC3=O)C12 (stereo not drawn) |  | 4.41
Cc1ccc2[nH]c(O)c(N=Nc3ccc(S(N)(=O)=O)cc3)c2c1 | > 22.4 | > 25
C/C(N=NC(=S)N(C)C)=C1\C=CC=CN1O |  | > 67.2
C=C1CCC(CC[C@@H]2CC[C@]3(OC2)O[C@@]2(O)CC[C@]3(C)OC2(C)C)C(C)(C)[C@H]1C/C=C1/C(=O)OC[C@@H]1O (stereo partly drawn) |  | 5.99
C[C@]12CC[C@@H]3c4cc(OCC(F)(F)F)c(O)cc4/C(=N/O)C[C@H]3[C@@H]1CC[C@@H]2O |  | 29.6
Cn1c(=O)c(Cc2ccccc2F)cc2cnc(NC3CCOCC3)nc21 | > 25 | > 25
COc1cc(/C=C/c2ccc(OC)c(OC)c2)cc(OC)c1 |  | > 100
CC1(C)[C@@H](OC(N)=O)[C@H]2O[C@H]2[C@]2(C=O)[C@H]3CC[C@]4(C)[C@@H](c5ccc(=O)oc5)[C@@H](Cl)C[C@]4(O)C3=CC[C@@H]12 | 0.00629 | 0.0138
CCCCON(OC(=O)c1ccc2ccc3cccc4ccc1c2c34)C(C)=O | 18.3 | 37.5
Cc1[nH]c2ccccc2c(=O)c1CC=C(Cl)Cl | > 100 | > 100
Clc1ccc(C=Nc2ccc3c(c2)Cc2ccccc2-3)c(Cl)c1 |  | > 100
COc1ccc(/C=C/c2cc(OC)cc(=O)o2)cc1 |  | > 100
O=C1CSC(c2ccc(Cl)cc2Cl)N1c1ccc(F)cc1 (stereo not drawn) | 20.4 | 35.5
COc1cccc(C#Cc2ccccc2C#CCCCCO)c1 | 13.9 | 37.9
COc1ccc(/C=C/C(=O)C(CC2CCC2)C(=O)/C=C/c2ccc(OC)c(OC)c2)cc1OC | 2.09 | 5.04
CCn1c(-c2ccc(OC(C)=O)cc2)c(C)c2cc(OC(C)=O)ccc21 |  | 76
O=c1cccc(C#CC#CC2=CCCCC2)o1 | 7.34 | 13.8
O=C1Nc2ccc(F)cc2/C1=C/c1ccc[nH]1 | > 25 | > 25

What follows are molecules tested on CCRF-CEM leukemia (assay: NCI anticancer screen, dose series, 48 h).

Structure (SMILES) | GI50 [µM] | TGI [µM]
Nc1ccc(-c2nc3ccc(Cc4ccc5nc(-c6ccc(N)cc6)[nH]c5c4)cc3[nH]2)cc1 | 2.12 | 6.7
O=S(=O)(Nc1cc(Sc2cccc3cccnc23)c(O)c2ccccc12)c1ccccc1 | 0.426 | 16
CN(C)C(=O)[C@H](O)[C@H](Cc1ccccc1)NC(=O)c1cc2cc(Cl)ccc2[nH]1 | 30.2 | > 100
CC(C)(C[C@H]1CN(S(=O)(=O)c2cccc(C(F)(F)F)c2)c2cc(-c3cc(F)cc(OC(F)F)c3)ccc2O1)C(=O)O | 4.72 | 24.7
Cc1ccc(-c2nc3ccc(Cl)cc3c(=O)n2N2C(=O)CSC2c2ccccc2Cl)cc1 (stereo not drawn) | > 100 | > 100
C#Cc1c(I)n(C2OC(CO[Si](C)(C)C(C)(C)C)C3OC(C)(C)OC32)c(=O)[nH]c1=O (stereo not drawn) | 4 | 11.9
CCSc1nc(SCC)c2cn[nH]c2n1 | 41.5 | > 100
ClCC[N+]12CC[N+](CCCl)(CC1)C2 |  | > 100
COc1cc(C(=O)c2cc(C)c3[nH]c4ccc(C)cc4c3c2C)cc(OC)c1OC | < 0.01 | > 100
C=C1C(=O)OC2/C=C(\COC(C)=O)CCC(OC(C)=O)C3=CC(OC3=O)C12 (stereo not drawn) |  | 4.63
Cc1ccc2[nH]c(O)c(N=Nc3ccc(S(N)(=O)=O)cc3)c2c1 | 15.6 | > 25
C/C(N=NC(=S)N(C)C)=C1\C=CC=CN1O |  | > 63.5
C=C1CCC(CC[C@@H]2CC[C@]3(OC2)O[C@@]2(O)CC[C@]3(C)OC2(C)C)C(C)(C)[C@H]1C/C=C1/C(=O)OC[C@@H]1O (stereo partly drawn) |  | 2.32
C[C@]12CC[C@@H]3c4cc(OCC(F)(F)F)c(O)cc4/C(=N/O)C[C@H]3[C@@H]1CC[C@@H]2O |  | < 0.0292
Cn1c(=O)c(Cc2ccccc2F)cc2cnc(NC3CCOCC3)nc21 | > 25 | > 25
COc1cc(/C=C/c2ccc(OC)c(OC)c2)cc(OC)c1 |  | > 100
CC1(C)[C@@H](OC(N)=O)[C@H]2O[C@H]2[C@]2(C=O)[C@H]3CC[C@]4(C)[C@@H](c5ccc(=O)oc5)[C@@H](Cl)C[C@]4(O)C3=CC[C@@H]12 | 0.00571 | 0.0147
CCCCON(OC(=O)c1ccc2ccc3cccc4ccc1c2c34)C(C)=O | 16.3 | 41.4
Cc1[nH]c2ccccc2c(=O)c1CC=C(Cl)Cl | > 100 | > 100
Clc1ccc(C=Nc2ccc3c(c2)Cc2ccccc2-3)c(Cl)c1 |  | > 100
COc1ccc(/C=C/c2cc(OC)cc(=O)o2)cc1 |  | > 100
O=C(/C=C\c1ccc(NCc2ccc(C(=O)O)cc2)cc1)CCl | 2.62 | 7.03
O=C1CSC(c2ccc(Cl)cc2Cl)N1c1ccc(F)cc1 (stereo not drawn) | 2.19 | 19
COc1cccc(C#Cc2ccccc2C#CCCCCO)c1 | 3.5 | 17.4
COc1cc2[nH]c(C(=O)c3cc(OC)c(OC)c(OC)c3)c(N)c2cc1C#CC1CC1 | 3.38 | > 100
COc1ccc(/C=C/C(=O)C(CC2CCC2)C(=O)/C=C/c2ccc(OC)c(OC)c2)cc1OC | 2.05 | > 100
CCn1c(-c2ccc(OC(C)=O)cc2)c(C)c2cc(OC(C)=O)ccc21 |  | 53.9
O=c1cccc(C#CC#CC2=CCCCC2)o1 | 0.649 | 5.5
